How the values were obtained:
ISC-enriched organoids [1] = experiment: Primary screen, 384-well 2.5-D organoid differentiation (ENR+CD, 6 days, Target Selective Inhibitor Library, vs whole-plate median): ATP (CellTiter-Glo 3D, CTG); settings: for Dose.FC.CTG: FC vs plate median; for SSMD.CTG: strictly standardized mean difference
ISC-enriched organoids [2] = experiment: Primary screen, 384-well 2.5-D organoid differentiation (ENR+CD, 6 days): basal lysozyme secretion (LYZ.NS); type: cell-based, murine; settings: for Dose.FC.LYZ.NS: FC vs plate median; for Z.LYZ.NS: standard z score of FC; for SSMD.LYZ.NS: strictly standardized mean difference
From the text: (§1) High-throughput screening.

ISC-enriched organoids [3] = experiment: Primary screen, 384-well 2.5-D organoid differentiation (ENR+CD, 6 days): carbachol-induced lysozyme secretion (LYZ.S); type: cell-based, murine; settings: for Dose.FC.LYZ.S: FC vs plate median; for Z.LYZ.S: standard z score; for SSMD.LYZ.S: strictly standardized mean difference
From the text: as §1

[4] = primary screen, dose 0.08 uM, ENR+CD 6 days
[5] = primary screen, dose 0.40 uM, ENR+CD 6 days
[6] = primary screen, dose 2.00 uM, ENR+CD 6 days
[7] = primary screen, dose 10.00 uM, ENR+CD 6 days
[8] = primary screen, 1st of the 4 dose lines of the treatment (dose not given)
[9] = primary screen, 2nd of the 4 dose lines of the treatment (dose not given)
[10] = primary screen, 3rd of the 4 dose lines of the treatment (dose not given)
[11] = primary screen, 4th of the 4 dose lines of the treatment (dose not given)

`COC1CCN(C(=O)c2cc(Cc3n[nH]c(=O)c4ccccc34)ccc2F)CC1` [AZD2461] gave a Dose.FC.CTG (ISC-enriched organoids [1]; [4]) of 0.073 log 2 fold change, a Z.CTG (ISC-enriched organoids [1]; primary screen, dose 0.08 uM, standard z score of FC) of 0.174 and a Dose.FC.CTG (ISC-enriched organoids [1]; [5]) of −0.040 log 2 fold change. It also gave a Z.CTG (ISC-enriched organoids [1]; primary screen, dose 0.40 uM, standard z score of FC) of −0.095, a Dose.FC.CTG (ISC-enriched organoids [1]; [6]) of −0.232 log 2 fold change and a Z.CTG (ISC-enriched organoids [1]; primary screen, dose 2.00 uM, standard z score of FC) of −0.555. For the same compound, the Dose.FC.CTG (ISC-enriched organoids [1]; [7]) was −0.336 log 2 fold change, the Z.CTG (ISC-enriched organoids [1]; primary screen, dose 10.00 uM, standard z score of FC) was −0.803 and the Dose.FC.LYZ.NS (ISC-enriched organoids [2]; [4]) was 0.038 log 2 fold change. It also gave a Z.LYZ.NS (ISC-enriched organoids [2]; primary screen, dose 0.08 uM) of 0.334, a Dose.FC.LYZ.NS (ISC-enriched organoids [2]; [5]) of −0.038 log 2 fold change and a Z.LYZ.NS (ISC-enriched organoids [2]; primary screen, dose 0.40 uM) of −0.327. The Dose.FC.LYZ.NS (ISC-enriched organoids [2]; [6]) was −0.074 log 2 fold change, the Z.LYZ.NS (ISC-enriched organoids [2]; primary screen, dose 2.00 uM) was −0.641 and the Dose.FC.LYZ.NS (ISC-enriched organoids [2]; [7]) was −0.172 log 2 fold change. The Z.LYZ.NS (ISC-enriched organoids [2]; primary screen, dose 10.00 uM) was −1.497, the Dose.FC.LYZ.S (ISC-enriched organoids [3]; [4]) was 0.097 log 2 fold change and the Dose.FC.LYZ.S (ISC-enriched organoids [3]; [5]) was 0.015 log 2 fold change. The Dose.FC.LYZ.S (ISC-enriched organoids [3]; [6]) was −0.100 log 2 fold change and the Dose.FC.LYZ.S (ISC-enriched organoids [3]; [7]) was −0.224 log 2 fold change.
`O=C(Nc1cccc(Nc2ncc(Br)c(NCCc3cnc[nH]3)n2)c1)N1CCCC1` [BX-912] showed a Dose.FC.CTG (ISC-enriched organoids [1]; Dose 0.08 uM, ENR+CD, 6 days) of 0.043 log 2 fold change, a Z.CTG (ISC-enriched organoids [1]; Dose 0.08 uM, standard z score of FC) of 0.103 and a Dose.FC.CTG (ISC-enriched organoids [1]; Dose 0.40 uM, ENR+CD, 6 days) of 0.054 log 2 fold change. It also gave a Z.CTG (ISC-enriched organoids [1]; Dose 0.40 uM, standard z score of FC) of 0.129, a Dose.FC.CTG (ISC-enriched organoids [1]; Dose 2.00 uM, ENR+CD, 6 days) of −0.246 log 2 fold change and a Z.CTG (ISC-enriched organoids [1]; Dose 2.00 uM, standard z score of FC) of −0.587. For the same compound, the Dose.FC.CTG (ISC-enriched organoids [1]; Dose 10.00 uM, ENR+CD, 6 days) was −0.397 log 2 fold change, the Z.CTG (ISC-enriched organoids [1]; Dose 10.00 uM, standard z score of FC) was −0.949 and the Dose.FC.LYZ.NS (ISC-enriched organoids [2]; Dose 0.08 uM, ENR+CD, 6 days) was 0.010 log 2 fold change. For the same compound, the Z.LYZ.NS (ISC-enriched organoids [2]; Dose 0.08 uM) was 0.090, the Dose.FC.LYZ.NS (ISC-enriched organoids [2]; Dose 0.40 uM, ENR+CD, 6 days) was 0.017 log 2 fold change and the Z.LYZ.NS (ISC-enriched organoids [2]; Dose 0.40 uM) was 0.151. The Dose.FC.LYZ.NS (ISC-enriched organoids [2]; Dose 2.00 uM, ENR+CD, 6 days) was −0.089 log 2 fold change, the Z.LYZ.NS (ISC-enriched organoids [2]; Dose 2.00 uM) was −0.771 and the Dose.FC.LYZ.NS (ISC-enriched organoids [2]; Dose 10.00 uM, ENR+CD, 6 days) was −0.196 log 2 fold change. For the same compound, the Z.LYZ.NS (ISC-enriched organoids [2]; Dose 10.00 uM) was −1.704, the Dose.FC.LYZ.S (ISC-enriched organoids [3]; Dose 0.08 uM, ENR+CD, 6 days) was 0.038 log 2 fold change and the Dose.FC.LYZ.S (ISC-enriched organoids [3]; Dose 0.40 uM, ENR+CD, 6 days) was 0.042 log 2 fold change. For the same compound, the Dose.FC.LYZ.S (ISC-enriched organoids [3]; Dose 2.00 uM, ENR+CD, 6 days) was −0.161 log 2 fold change and the Dose.FC.LYZ.S (ISC-enriched organoids [3]; Dose 10.00 uM, ENR+CD, 6 days) was −0.272 log 2 fold change.
`C[C@@H]1CN(CC(=O)Nc2ccc3c(c2)Cc2cccc(-c4cc(=O)cc(N5CCOCC5)o4)c2S3)C[C@H](C)O1` [KU-60019] gave a Z.CTG (ISC-enriched organoids [1]; Dose 0.08 uM, primary screen, standard z score) of 0.273, a Z.CTG (ISC-enriched organoids [1]; Dose 0.40 uM, primary screen, standard z score) of 0.094 and a Z.CTG (ISC-enriched organoids [1]; Dose 2.00 uM, primary screen, standard z score) of 0.290. For the same compound, the Z.CTG (ISC-enriched organoids [1]; Dose 10.00 uM, primary screen, standard z score) was −1.246, the SSMD.CTG (ISC-enriched organoids [1]; [8]) was 0.371 and the SSMD.CTG (ISC-enriched organoids [1]; [9]) was 0.118. The SSMD.CTG (ISC-enriched organoids [1]; [10]) was 0.175, the SSMD.CTG (ISC-enriched organoids [1]; [11]) was −0.916 and the SSMD.LYZ.NS (ISC-enriched organoids [2]; [8]) was 0.305. It also gave an SSMD.LYZ.NS (ISC-enriched organoids [2]; [9]) of −0.014, an SSMD.LYZ.NS (ISC-enriched organoids [2]; [10]) of −0.103 and an SSMD.LYZ.NS (ISC-enriched organoids [2]; [11]) of −0.570. For the same compound, the Z.LYZ.S (ISC-enriched organoids [3]; [8]) was 1.490, the Z.LYZ.S (ISC-enriched organoids [3]; [9]) was 0.474 and the Z.LYZ.S (ISC-enriched organoids [3]; [10]) was −0.317. For the same compound, the Z.LYZ.S (ISC-enriched organoids [3]; [11]) was −1.436, the SSMD.LYZ.S (ISC-enriched organoids [3]; [8]) was 0.938 and the SSMD.LYZ.S (ISC-enriched organoids [3]; [9]) was 0.312. It also gave an SSMD.LYZ.S (ISC-enriched organoids [3]; [10]) of −0.261 and an SSMD.LYZ.S (ISC-enriched organoids [3]; [11]) of −0.923.
